{"source": "patent US20100137449A1", "about": "“SUBSTITUTED 1,3-CYCLOPENTADIONE MULTI-TARGET PROTEIN KINASE MODULATORS OF CANCER, ANGIOGENESIS AND THE INFLAMMATORY PATHWAYS ASSOCIATED THEREWITH” (METAPROTEOMICS, LLC, priority 2007, published 2010)", "test_in_all_cases": "KinaseProfiler Assay", "key": {"Yes(h)": {"target": "Yes(h) (Homo sapiens, UniProt P07947)", "sequence (P07947 whole entry)": "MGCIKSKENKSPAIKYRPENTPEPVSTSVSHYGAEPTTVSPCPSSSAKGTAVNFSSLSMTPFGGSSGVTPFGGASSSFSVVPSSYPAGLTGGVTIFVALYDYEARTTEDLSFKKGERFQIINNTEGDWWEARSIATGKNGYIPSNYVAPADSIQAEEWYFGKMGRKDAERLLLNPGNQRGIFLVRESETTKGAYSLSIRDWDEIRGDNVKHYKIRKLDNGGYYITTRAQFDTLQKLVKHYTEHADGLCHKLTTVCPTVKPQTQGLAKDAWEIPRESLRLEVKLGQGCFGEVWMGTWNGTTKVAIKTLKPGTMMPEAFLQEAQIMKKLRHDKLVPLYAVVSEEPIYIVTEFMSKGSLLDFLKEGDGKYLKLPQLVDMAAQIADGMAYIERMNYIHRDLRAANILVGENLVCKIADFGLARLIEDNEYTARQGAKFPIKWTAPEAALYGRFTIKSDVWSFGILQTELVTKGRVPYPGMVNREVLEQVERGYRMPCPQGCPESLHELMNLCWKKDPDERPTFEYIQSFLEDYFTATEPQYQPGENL"}, "PKCβI(h)": {"target": "PKCβI(h) (Homo sapiens, UniProt P05771)", "sequence (P05771 whole entry)": "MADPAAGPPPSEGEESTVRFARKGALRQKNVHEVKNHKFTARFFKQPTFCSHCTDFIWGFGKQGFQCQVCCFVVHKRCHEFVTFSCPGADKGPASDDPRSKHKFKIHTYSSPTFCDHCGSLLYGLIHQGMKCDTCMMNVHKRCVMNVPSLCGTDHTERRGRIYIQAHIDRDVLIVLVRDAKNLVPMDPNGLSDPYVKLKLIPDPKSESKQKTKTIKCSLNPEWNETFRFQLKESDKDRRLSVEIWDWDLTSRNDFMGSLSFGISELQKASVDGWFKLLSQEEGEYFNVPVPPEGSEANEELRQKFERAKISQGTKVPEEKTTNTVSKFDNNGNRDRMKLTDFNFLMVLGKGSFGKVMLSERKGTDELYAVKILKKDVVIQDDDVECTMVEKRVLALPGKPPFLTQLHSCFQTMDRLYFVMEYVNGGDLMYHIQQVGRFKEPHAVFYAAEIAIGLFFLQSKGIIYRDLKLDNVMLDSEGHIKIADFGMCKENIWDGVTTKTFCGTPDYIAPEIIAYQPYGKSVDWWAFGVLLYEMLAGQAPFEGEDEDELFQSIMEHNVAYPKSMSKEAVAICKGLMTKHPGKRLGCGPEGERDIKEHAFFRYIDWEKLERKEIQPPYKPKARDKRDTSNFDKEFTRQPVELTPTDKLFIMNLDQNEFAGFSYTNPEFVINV"}, "EGFR(T790M, L858R)(h)": {"target": "EGFR(T790M, L858R)(h) (Homo sapiens, UniProt P00533, L858R/T790M)", "sequence (P00533 25-1210 T790M/L858R)": "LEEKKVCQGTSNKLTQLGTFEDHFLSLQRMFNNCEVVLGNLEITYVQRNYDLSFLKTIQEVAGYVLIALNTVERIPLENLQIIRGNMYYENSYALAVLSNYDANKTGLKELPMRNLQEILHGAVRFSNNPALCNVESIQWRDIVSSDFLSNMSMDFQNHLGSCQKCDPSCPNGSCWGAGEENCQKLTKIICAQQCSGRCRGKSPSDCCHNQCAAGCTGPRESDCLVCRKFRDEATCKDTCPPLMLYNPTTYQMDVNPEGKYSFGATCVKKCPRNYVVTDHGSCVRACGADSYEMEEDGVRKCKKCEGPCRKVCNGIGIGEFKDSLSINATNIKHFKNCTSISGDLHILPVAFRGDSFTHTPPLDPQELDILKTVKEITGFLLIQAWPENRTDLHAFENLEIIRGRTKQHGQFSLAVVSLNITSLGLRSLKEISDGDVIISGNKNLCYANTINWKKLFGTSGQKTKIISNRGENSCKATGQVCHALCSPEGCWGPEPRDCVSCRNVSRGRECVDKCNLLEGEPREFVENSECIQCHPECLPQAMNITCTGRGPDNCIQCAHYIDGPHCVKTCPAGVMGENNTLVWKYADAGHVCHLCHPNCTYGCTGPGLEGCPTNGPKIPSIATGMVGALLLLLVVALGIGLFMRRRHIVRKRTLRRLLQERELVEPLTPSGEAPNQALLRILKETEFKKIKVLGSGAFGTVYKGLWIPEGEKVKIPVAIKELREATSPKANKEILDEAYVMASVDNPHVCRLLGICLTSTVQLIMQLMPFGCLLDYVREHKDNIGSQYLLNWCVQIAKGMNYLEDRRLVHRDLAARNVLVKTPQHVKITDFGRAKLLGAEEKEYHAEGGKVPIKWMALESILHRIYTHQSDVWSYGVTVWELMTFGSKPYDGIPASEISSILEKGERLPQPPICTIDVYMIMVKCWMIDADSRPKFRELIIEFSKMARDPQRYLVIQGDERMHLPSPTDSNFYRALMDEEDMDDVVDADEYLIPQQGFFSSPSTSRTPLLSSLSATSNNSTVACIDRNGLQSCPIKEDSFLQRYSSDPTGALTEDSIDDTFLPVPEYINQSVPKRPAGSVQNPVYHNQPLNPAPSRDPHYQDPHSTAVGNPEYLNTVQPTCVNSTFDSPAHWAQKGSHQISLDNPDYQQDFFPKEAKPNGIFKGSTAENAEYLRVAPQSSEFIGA"}, "SAPK4(h)": {"target": "T1, SAPK4(h) (Homo sapiens, UniProt O15264)", "T1 sequence (O15264 1-365)": "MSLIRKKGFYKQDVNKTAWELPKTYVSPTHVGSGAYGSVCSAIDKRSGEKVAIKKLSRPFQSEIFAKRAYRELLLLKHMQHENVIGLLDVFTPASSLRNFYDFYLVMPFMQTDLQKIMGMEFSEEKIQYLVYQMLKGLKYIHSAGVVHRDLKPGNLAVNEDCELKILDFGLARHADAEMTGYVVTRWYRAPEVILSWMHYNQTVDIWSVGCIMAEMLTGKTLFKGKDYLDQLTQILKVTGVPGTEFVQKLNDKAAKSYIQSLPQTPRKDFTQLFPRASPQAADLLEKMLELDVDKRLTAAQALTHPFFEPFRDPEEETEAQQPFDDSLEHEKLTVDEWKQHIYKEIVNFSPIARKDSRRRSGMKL"}, "Flt3(D835Y)(h)": {"target": "T2, Flt3(D835Y)(h) (Homo sapiens, UniProt P36888, D835Y)", "T2 sequence (P36888 27-993 D835Y)": "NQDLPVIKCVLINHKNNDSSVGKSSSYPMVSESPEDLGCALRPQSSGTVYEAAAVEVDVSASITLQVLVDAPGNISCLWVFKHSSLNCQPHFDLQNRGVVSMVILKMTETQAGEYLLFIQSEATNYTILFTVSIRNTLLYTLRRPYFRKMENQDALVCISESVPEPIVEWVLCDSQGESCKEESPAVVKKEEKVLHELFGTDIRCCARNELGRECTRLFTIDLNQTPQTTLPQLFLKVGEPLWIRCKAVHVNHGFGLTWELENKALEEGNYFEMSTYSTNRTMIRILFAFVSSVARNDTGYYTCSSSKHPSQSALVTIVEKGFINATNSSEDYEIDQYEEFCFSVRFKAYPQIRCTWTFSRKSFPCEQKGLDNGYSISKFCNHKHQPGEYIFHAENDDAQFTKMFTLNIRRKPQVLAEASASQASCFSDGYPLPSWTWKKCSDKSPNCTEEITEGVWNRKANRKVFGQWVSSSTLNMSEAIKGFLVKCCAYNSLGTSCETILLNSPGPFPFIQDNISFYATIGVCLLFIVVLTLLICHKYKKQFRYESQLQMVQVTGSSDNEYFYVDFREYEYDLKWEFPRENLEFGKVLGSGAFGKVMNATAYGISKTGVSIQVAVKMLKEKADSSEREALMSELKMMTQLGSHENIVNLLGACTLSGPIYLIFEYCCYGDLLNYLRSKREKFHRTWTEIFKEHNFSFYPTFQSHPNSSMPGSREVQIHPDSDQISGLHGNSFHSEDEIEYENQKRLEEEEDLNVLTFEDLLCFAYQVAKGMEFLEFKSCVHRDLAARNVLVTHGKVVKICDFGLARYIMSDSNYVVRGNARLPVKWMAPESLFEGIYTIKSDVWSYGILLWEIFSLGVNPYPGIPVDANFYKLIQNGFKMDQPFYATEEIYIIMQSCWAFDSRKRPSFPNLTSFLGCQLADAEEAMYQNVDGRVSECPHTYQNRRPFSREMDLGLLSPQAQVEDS"}, "PKG1α(h)": {"target": "T3, PKG1α(h) (Homo sapiens, UniProt Q13976)", "T3 sequence (Q13976 1-671)": "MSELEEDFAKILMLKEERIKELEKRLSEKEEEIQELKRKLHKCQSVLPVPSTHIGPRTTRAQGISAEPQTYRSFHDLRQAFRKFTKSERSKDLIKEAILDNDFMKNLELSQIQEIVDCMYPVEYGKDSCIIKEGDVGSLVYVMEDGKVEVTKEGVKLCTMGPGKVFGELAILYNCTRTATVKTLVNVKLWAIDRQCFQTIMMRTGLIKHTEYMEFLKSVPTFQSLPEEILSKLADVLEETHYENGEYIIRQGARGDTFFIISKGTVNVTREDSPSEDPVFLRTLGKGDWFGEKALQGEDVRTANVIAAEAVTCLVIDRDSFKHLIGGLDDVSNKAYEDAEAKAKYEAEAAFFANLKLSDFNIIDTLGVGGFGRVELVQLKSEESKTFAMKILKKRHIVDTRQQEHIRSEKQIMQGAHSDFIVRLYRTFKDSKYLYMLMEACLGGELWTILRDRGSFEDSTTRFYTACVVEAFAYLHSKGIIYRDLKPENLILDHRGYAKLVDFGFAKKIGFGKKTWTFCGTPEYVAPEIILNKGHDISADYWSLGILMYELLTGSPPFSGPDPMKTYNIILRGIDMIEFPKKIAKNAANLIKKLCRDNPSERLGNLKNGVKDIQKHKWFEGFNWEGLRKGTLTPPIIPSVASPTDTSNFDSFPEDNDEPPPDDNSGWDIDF"}, "Rsk4(h)": {"target": "Rsk4(h) (Homo sapiens, UniProt Q9UK32)", "sequence (Q9UK32 whole entry)": "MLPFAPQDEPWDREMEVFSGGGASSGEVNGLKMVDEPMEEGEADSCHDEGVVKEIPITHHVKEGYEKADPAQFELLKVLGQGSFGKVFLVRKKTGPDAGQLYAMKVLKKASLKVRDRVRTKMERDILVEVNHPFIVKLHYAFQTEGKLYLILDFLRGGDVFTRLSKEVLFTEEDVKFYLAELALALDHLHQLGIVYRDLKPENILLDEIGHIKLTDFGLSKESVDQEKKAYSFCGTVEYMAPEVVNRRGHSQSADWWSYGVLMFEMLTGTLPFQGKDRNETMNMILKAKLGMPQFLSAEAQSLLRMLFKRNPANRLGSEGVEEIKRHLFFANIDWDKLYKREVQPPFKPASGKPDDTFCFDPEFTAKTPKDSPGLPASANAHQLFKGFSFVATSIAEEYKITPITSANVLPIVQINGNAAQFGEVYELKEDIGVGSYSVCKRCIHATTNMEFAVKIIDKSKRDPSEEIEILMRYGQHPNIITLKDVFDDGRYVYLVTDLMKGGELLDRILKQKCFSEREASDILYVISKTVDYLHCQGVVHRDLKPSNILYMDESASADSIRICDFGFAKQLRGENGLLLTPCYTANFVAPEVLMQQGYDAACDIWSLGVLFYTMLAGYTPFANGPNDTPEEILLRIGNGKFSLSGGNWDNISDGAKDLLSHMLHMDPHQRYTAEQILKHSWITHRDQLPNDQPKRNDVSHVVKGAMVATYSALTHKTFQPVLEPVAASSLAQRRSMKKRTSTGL"}}, "data": [{"smiles": "CC(C)CCC(=O)[C@]1(O)C(O)=C(C(=O)C(C)C)C(=O)[C@H]1CCC(C)C", "note": "[TH2, tetrahydroiso-cohumulone]", "values": [{"measurement": "kinase inhibition", "setting": "Yes(h); 1 μg/ml", "result": "92% of control"}, {"measurement": "kinase inhibition", "setting": "Yes(h); 5 μg/ml", "result": "81% of control"}, {"measurement": "kinase inhibition", "setting": "Yes(h); 25 μg/ml", "result": "116% of control"}, {"measurement": "kinase inhibition", "setting": "Yes(h); 50 μg/ml", "result": "111% of control"}, {"measurement": "kinase inhibition", "setting": "Yes(h); 100 μg/ml", "result": "104% of control"}, {"measurement": "kinase inhibition", "setting": "PKCβI(h); 1 μg/ml", "result": "105% of control"}, {"measurement": "kinase inhibition", "setting": "PKCβI(h); 5 μg/ml", "result": "110% of control"}, {"measurement": "kinase inhibition", "setting": "PKCβI(h); 25 μg/ml", "result": "93% of control"}, {"measurement": "kinase inhibition", "setting": "PKCβI(h); 50 μg/ml", "result": "95% of control"}, {"measurement": "kinase inhibition", "setting": "PKCβI(h); 100 μg/ml", "result": "92% of control"}, {"measurement": "kinase inhibition", "setting": "EGFR(T790M, L858R)(h); 1 μg/ml", "result": "104% of control"}, {"measurement": "kinase inhibition", "setting": "EGFR(T790M, L858R)(h); 5 μg/ml", "result": "109% of control"}, {"measurement": "kinase inhibition", "setting": "EGFR(T790M, L858R)(h); 25 μg/ml", "result": "95% of control"}, {"measurement": "kinase inhibition", "setting": "EGFR(T790M, L858R)(h); 50 μg/ml", "result": "94% of control"}, {"measurement": "kinase inhibition", "setting": "EGFR(T790M, L858R)(h); 100 μg/ml", "result": "82% of control"}, {"measurement": "kinase inhibition", "setting": "SAPK4(h); 1 μg/ml", "result": "114% of control"}, {"measurement": "kinase inhibition", "setting": "SAPK4(h); 5 μg/ml", "result": "118% of control"}, {"measurement": "kinase inhibition", "setting": "SAPK4(h); 25 μg/ml", "result": "116% of control"}, {"measurement": "kinase inhibition", "setting": "SAPK4(h); 50 μg/ml", "result": "121% of control"}, {"measurement": "kinase inhibition", "setting": "SAPK4(h); 100 μg/ml", "result": "109% of control"}, {"measurement": "kinase inhibition", "setting": "Flt3(D835Y)(h); 1 μg/ml", "result": "108% of control"}, {"measurement": "kinase inhibition", "setting": "Flt3(D835Y)(h); 5 μg/ml", "result": "116% of control"}, {"measurement": "kinase inhibition", "setting": "Flt3(D835Y)(h); 25 μg/ml", "result": "102% of control"}, {"measurement": "kinase inhibition", "setting": "Flt3(D835Y)(h); 50 μg/ml", "result": "105% of control"}, {"measurement": "kinase inhibition", "setting": "Flt3(D835Y)(h); 100 μg/ml", "result": "98% of control"}, {"measurement": "kinase inhibition", "setting": "PKG1α(h); 1 μg/ml", "result": "103% of control"}, {"measurement": "kinase inhibition", "setting": "PKG1α(h); 5 μg/ml", "result": "112% of control"}, {"measurement": "kinase inhibition", "setting": "PKG1α(h); 25 μg/ml", "result": "97% of control"}, {"measurement": "kinase inhibition", "setting": "PKG1α(h); 50 μg/ml", "result": "92% of control"}, {"measurement": "kinase inhibition", "setting": "PKG1α(h); 100 μg/ml", "result": "73% of control"}, {"measurement": "kinase inhibition", "setting": "Rsk4(h); 1 μg/ml", "result": "79% of control"}, {"measurement": "kinase inhibition", "setting": "Rsk4(h); 5 μg/ml", "result": "71% of control"}, {"measurement": "kinase inhibition", "setting": "Rsk4(h); 25 μg/ml", "result": "47% of control"}, {"measurement": "kinase inhibition", "setting": "Rsk4(h); 50 μg/ml", "result": "31% of control"}, {"measurement": "kinase inhibition", "setting": "Rsk4(h); 100 μg/ml", "result": "17% of control"}]}]}
